Measurements as given in patent US9682141B2, “Combination of kinase inhibitors and uses thereof” (INTELLIKINE LLC, priority 2011, dated 2017).
Where two headings read alike, the source gives them in different places.

Legend:
Format in all cases: biochemical
[1] = biological target: PI3K α (Homo sapiens (Human), UniProt P42336); experiment: PI 3-Kinase (human) HTRF assay, p110α/p85α
[2] = biological target: PI3K β (Homo sapiens (Human), UniProt P42338); experiment: PI 3-Kinase (human) HTRF assay, p110β/p85α
[3] = PI 3-Kinase (human) HTRF assay, p110δ/p85α; details: read-out: PI3K γ IC50
[4] = biological target: PI3K γ (Homo sapiens (Human), UniProt P48736); experiment: PI 3-Kinase (human) HTRF assay, p110γ

PI3K β, sequence (P42338 whole entry): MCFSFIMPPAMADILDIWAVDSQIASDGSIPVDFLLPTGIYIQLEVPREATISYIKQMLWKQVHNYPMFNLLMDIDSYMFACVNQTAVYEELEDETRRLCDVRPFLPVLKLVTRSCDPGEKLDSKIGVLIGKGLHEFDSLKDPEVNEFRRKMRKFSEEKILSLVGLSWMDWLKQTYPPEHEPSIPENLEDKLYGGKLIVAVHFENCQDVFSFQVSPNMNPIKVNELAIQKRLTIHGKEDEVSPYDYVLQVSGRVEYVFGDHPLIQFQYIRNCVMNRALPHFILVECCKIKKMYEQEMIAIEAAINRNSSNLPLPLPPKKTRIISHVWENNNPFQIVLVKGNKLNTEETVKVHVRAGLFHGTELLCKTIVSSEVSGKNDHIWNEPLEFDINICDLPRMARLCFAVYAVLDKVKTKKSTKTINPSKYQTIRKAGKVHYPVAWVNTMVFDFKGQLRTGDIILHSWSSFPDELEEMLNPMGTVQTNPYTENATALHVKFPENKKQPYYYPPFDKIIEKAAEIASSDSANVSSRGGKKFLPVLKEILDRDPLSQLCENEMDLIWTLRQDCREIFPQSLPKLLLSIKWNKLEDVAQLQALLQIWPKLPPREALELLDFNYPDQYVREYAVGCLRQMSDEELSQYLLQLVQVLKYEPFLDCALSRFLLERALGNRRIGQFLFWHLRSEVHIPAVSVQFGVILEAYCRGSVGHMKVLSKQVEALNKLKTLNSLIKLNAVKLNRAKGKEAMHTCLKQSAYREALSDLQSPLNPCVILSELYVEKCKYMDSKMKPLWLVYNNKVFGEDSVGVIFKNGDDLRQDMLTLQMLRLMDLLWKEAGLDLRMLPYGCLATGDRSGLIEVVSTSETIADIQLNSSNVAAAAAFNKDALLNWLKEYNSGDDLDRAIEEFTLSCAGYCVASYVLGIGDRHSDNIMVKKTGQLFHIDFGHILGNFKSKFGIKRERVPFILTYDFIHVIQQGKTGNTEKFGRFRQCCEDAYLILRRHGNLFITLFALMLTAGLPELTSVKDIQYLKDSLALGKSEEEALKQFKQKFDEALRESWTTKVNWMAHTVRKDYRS
PI3K β, sequence (P27986 whole entry partner): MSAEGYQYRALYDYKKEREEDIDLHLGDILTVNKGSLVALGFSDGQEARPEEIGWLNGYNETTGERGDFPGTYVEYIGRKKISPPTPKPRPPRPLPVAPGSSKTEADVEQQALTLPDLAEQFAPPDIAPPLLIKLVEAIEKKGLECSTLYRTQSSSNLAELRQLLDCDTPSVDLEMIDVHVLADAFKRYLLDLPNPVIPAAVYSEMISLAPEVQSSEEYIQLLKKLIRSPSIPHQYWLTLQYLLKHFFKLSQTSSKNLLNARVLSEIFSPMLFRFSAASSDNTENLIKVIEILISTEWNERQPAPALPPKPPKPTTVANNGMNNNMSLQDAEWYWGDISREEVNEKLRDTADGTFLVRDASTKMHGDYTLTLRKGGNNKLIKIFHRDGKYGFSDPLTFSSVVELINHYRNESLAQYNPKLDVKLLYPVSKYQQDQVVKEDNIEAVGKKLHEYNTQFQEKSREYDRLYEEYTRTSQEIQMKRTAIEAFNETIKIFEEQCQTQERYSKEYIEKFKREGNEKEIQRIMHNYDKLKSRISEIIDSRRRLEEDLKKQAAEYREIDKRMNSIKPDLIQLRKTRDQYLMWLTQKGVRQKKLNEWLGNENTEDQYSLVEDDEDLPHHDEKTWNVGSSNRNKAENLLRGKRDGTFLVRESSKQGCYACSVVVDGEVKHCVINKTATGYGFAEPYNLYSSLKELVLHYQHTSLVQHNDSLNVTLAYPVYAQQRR
PI3K α, sequence (P42336 whole entry): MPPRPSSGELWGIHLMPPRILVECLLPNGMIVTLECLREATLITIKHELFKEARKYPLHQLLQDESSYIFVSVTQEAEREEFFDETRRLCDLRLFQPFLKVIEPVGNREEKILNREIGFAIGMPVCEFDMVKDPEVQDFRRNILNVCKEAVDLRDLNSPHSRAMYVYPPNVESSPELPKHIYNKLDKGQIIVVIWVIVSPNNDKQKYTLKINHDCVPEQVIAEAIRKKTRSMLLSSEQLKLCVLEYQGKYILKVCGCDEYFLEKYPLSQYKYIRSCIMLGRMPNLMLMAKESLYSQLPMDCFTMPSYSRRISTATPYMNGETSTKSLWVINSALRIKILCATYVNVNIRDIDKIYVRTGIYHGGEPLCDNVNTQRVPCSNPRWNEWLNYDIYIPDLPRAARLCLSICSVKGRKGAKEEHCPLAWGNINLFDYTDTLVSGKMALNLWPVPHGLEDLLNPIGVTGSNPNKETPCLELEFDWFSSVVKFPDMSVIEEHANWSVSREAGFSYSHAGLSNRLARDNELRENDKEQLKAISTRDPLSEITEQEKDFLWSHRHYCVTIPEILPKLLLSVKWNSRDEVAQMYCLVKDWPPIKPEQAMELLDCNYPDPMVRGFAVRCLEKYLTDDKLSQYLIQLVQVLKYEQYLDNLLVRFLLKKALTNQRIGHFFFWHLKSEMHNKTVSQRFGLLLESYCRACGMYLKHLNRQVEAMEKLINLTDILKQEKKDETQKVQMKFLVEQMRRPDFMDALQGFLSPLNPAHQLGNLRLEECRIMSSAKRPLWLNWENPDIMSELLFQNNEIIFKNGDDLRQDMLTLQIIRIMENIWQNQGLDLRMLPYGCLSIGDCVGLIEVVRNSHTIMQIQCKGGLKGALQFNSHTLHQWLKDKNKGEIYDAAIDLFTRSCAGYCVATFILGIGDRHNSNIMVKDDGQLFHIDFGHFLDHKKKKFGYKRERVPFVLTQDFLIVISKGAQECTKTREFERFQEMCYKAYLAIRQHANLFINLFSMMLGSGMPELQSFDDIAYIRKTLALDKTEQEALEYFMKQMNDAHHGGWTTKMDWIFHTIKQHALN
PI3K α, sequence (P27986 whole entry partner): as the sequence (P27986 whole entry partner) above

SMILES | IC50 [1] [µM] | IC50 [2] [µM] | IC50 [3] [µM] | IC50 ([4]; read-out: PI3K δ IC50) [µM] | IC50 ([4]; read-out: PI3K γ IC50) [µM]
Nc1nc2cc(-c3ccc4nnc(-c5ccncc5)n4c3)ccc2o1 | < 1 | < 1 | > 10 | < 10 | 
Nc1nc2cc(-c3ccc4ncc(C(=O)N5C6CCC5COC6)n4c3)ccc2o1 | < 0.1 | > 10 | < 10 | < 1 | 
C[C@@H]1CN(C2CN(c3cnc4ccc(-c5ccc6oc(N)nc6c5)nc4n3)C2)CCN1C | < 0.1 | > 10 |  |  | < 10
Nc1nc2cc(-c3ccc4ncc(N5CCC(n6cccn6)CC5)nc4c3)ccc2o1 | < 0.1 | > 10 | > 10 | < 1 | 
Nc1nc2cc(-c3ccc4ncc(C(=O)N5CCC6(C5)OCCO6)n4c3)ccc2o1 | < 1 | > 10 | > 10 | < 10 | 
Nc1nc2ccc(-c3ccc4sc(N)nc4c3)cc2o1 | < 0.1 | < 0.1 | < 1 | < 0.1 | 
CN1CCC(n2cnc3ccc(-c4cnc(Cl)c(NS(C)(=O)=O)c4)cc3c2=O)CC1 | < 0.1 | < 10 | < 1 | > 10 | 
COc1ncc(-c2ccc3ncn(C4CCN(C)CC4)c(=O)c3c2)cc1NS(=O)(=O)c1ccccc1 | < 0.1 | < 0.1 | < 0.1 | < 1 | 
Nc1nc2cc(-c3ccc4ncc(C(=O)N5CCC(O)C5)n4c3)ccc2o1 (stereo not drawn) | < 0.1 | < 10 | < 10 |  | 
Cc1ccn(C2CCN(C(=O)c3cnc4ccc(-c5ccc6oc(N)nc6c5)cn34)CC2)n1 | < 1 | > 10 | > 10 | < 10 | 
Nc1n[nH]c2cc(-c3ccc4ncc(C(=O)N5CCOCC5)n4c3)ccc12 | > 10 | > 10 | > 10 | > 10 | 
Nc1nc2ccc(-c3ccc4nc(N)oc4c3)cc2o1 | > 10 | > 10 | > 10 | > 10 | 
Nc1nc2cc(-c3ccc4ncc(C(=O)N5CC[C@H](n6cccn6)C5)n4c3)ccc2o1 | < 0.1 | < 10 | < 1 | < 1 | 
Nc1nc2ccc(-c3ccc4nc(N)sc4c3)cc2o1 | < 1 | < 0.1 | > 10 | < 0.1 | 
CC(Oc1nc(-c2ccc3ncc(C(=O)N4CCOCC4)n3c2)cnc1N)C(F)(F)F (stereo not drawn) | < 0.1 | < 10 | < 10 | < 1 | 
Nc1nc2ccc(-c3cc(F)c4oc(N)nc4c3)cc2o1 | < 1 | < 1 | < 10 | < 0.1 | 
CO[C@@H]1CCN(C(=O)c2cnc3ccc(-c4ccc5oc(N)nc5c4)cn23)C1 | < 0.1 | > 10 | > 10 | < 1 | 
Nc1cn2cc(-c3ccc4oc(N)nc4c3)ccc2n1 | < 1 | < 10 | > 10 | < 1 | 
Nc1nc2cc(-c3ccc4ncc(C(=O)N5CC(F)C5)n4c3)ccc2o1 | < 0.1 | < 10 | > 10 | < 0.1 | 
CNC(=O)C1CN(c2cnc3ccc(-c4ccc5oc(N)nc5c4)cc3n2)C1 | < 0.1 | < 0.1 | < 10 | < 1 | 
Nc1cn2cc(-c3ccc4nc(N)oc4c3)ccc2n1 | > 10 | < 10 | > 10 | < 10 | 
CCN(CC)CCCn1cnc2ccc(-c3ccc4oc(N)nc4c3)cc2c1=O | < 1 | > 10 | < 10 | > 10 | 
Nc1nc2cc(-c3nc4cc(-c5cccnc5)cnc4s3)ccc2o1 | > 10 | > 10 | > 10 | > 10 | 

SMILES | IC50 [1] [µM] | IC50 [2] [µM] | IC50 [3] [µM] | IC50 ([4]; read-out: PI3K δ IC50) [µM] | IC50 ([4]; read-out: PI3K γ IC50) [µM]
Cc1cc(-c2ccc3oc(N)nc3c2)cc2c(C(=O)N3CCOCC3)cnn12 | < 1 | < 10 | < 10 | < 1 | 
CN(C(=O)c1cnc2ccc(-c3ccc4oc(N)nc4c3)cn12)C1CCOCC1 | < 0.1 | < 10 | < 10 | < 1 | 
CNS(=O)(=O)c1cc(-c2ccc3ncc(C(=O)N4CCOCC4)n3c2)ccc1OC | > 10 | > 10 | > 10 | > 10 | 
Nc1nc2cc(-c3ccc4ncc(C(=O)N5CC[C@@H](N6CCOCC6)C5)n4c3)ccc2o1 | < 1 | < 10 | < 10 | < 1 | 
CN1CCC(NC(=O)c2cnc3ccc(-c4ccc5oc(N)nc5c4)nn23)CC1 | < 0.1 | < 0.1 | < 1 | < 0.1 | 
Nc1nc2cc(-c3ccc4ncc(N5CC[C@H](N6CCOCC6)C5)nc4c3)ccc2o1 | < 1 | < 10 | < 1 | < 1 | 
CCN(CC)CC(=O)N1CCN(c2cnc3ccc(-c4ccc5oc(N)nc5c4)cc3n2)CC1 | < 0.1 | < 10 | < 10 | < 10 | 
C[C@@H]1CN(C2CN(C(=O)c3cnc4ccc(-c5ccc6oc(N)nc6c5)cn34)C2)CCN1C | < 0.1 | < 10 | < 1 | < 10 | 
Nc1nc2cc(-c3ccc4ncc(C(=O)N5CCCCC5)n4c3)ccc2o1 | < 1 | < 10 | > 10 | < 10 | 
Nc1nc2cc(-c3ccc4ncc(N5CCN(C(=O)[C@H](N)CO)CC5)nc4c3)ccc2o1 | < 0.1 | < 1 | < 0.1 | < 0.1 | 
Nc1nc2cc(-c3ccc4ncc(C(=O)N5CCn6cncc6C5)n4c3)ccc2o1 | < 0.1 | < 1 | > 10 | < 10 | 
C[C@H]1CN(c2cnc3ccc(-c4ccc5nc(N)sc5c4)cc3n2)CCN1 | < 1 | < 1 | > 10 | < 10 | 
CN(C)CCn1cnc2ccc(-c3ccc4oc(N)nc4c3)cc2c1=O | < 10 | > 10 | > 10 | > 10 | 
O=C(c1cnc2ccc(-c3cncc(NS(=O)(=O)c4ccc(F)cc4F)c3)cn12)N1CCOCC1 | < 0.1 | > 10 | < 1 | < 0.1 | 
Cc1cc(-c2ccc3oc(N)nc3c2)cc2c(-c3ccncc3)cnn12 | < 0.1 | < 1 | < 1 | < 0.1 | 
O=C(c1cnc2ccc(-c3ccc(Cl)c(NS(=O)(=O)c4ccc(F)cc4F)c3)cn12)N1CCOCC1 | < 1 | < 10 | < 10 | < 1 | 
Nc1nc2cc(-c3ccc4sc(N)nc4c3)cc(F)c2o1 | < 10 | < 1 | > 10 | < 1 | 
COc1ncc(-c2ccc3ncn(C4CCN(C)CC4)c(=O)c3c2)cc1NS(C)(=O)=O | < 0.1 | < 1 |  | < 10 | 
CN(C)CC(=O)N1CCN(c2cnc3ccc(-c4ccc5oc(N)nc5c4)cc3n2)CC1 [drawing 407] |  |  | < 1 | < 1 | 
C[C@@H]1CN(c2cnc3ccc(-c4ccc5oc(N)nc5c4)nc3n2)CCN1 | < 0.1 | < 0.1 |  |  | < 1
Cc1c(-c2ccc3oc(N)nc3c2)ccc2ncc(N3CC(N4CCNCC4)C3)nc12 | < 0.1 | > 10 | > 10 |  | 
CC1CN(C(=O)c2cnc3ccc(-c4ccc5oc(N)nc5c4)cn23)CCO1 (stereo not drawn) | < 0.1 | < 10 | > 10 |  | 
CN1CCN(c2cnc3ccc(-c4ccc5oc(N)nc5c4)cc3n2)C(=O)C1 | < 10 |  |  | > 10 | 
